Target: T1, TSHR (Mus musculus, UniProt P47750)
T1 construct: host or cells: mice in vivo (endogenous thyroid TSHR)
Assay: not given
Details: TSH-releasing hormone (TRH)-treated mice; cited from earlier work

T1 sequence (P47750 22-764): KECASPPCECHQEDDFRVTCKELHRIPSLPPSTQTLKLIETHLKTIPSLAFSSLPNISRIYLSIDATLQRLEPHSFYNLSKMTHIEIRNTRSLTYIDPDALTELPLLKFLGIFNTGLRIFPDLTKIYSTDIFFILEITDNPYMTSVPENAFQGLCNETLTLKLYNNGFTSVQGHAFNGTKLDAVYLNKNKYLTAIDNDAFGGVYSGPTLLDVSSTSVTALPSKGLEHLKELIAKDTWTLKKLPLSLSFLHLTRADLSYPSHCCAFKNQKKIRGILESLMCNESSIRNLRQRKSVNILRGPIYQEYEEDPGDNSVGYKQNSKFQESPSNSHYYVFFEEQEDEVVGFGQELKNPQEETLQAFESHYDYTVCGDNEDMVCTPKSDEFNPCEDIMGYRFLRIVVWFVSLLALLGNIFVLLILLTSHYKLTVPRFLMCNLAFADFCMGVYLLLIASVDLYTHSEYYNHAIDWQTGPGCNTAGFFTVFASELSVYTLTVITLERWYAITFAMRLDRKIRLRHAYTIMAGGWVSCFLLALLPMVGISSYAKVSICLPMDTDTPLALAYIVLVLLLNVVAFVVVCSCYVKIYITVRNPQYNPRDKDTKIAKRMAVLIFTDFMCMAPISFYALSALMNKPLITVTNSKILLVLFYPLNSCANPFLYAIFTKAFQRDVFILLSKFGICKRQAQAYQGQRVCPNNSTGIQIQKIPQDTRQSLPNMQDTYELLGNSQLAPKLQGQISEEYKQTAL

Row | Compound | blood T4 concentration
1 | COc1ccc(C2Nc3ccccc3C(=O)N2Cc2ccco2)cc1COc1c(C)cc(NC(C)=O)cc1C (centres unmarked) [NCGC00242364] | blood T4 concentration lowering effect

Same assay, conditions: thyroid stimulating antibody M22-treated mice; cited from earlier work

Row | Compound | blood T4 concentration
2 | COc1ccc(C2Nc3ccccc3C(=O)N2Cc2ccco2)cc1COc1c(C)cc(NC(C)=O)cc1C (centres unmarked) [NCGC00242364] | blood T4 concentration lowering effect

Target: T2, human TSHR (Homo sapiens, UniProt P16473)
T2 construct: expressed in transfected cells
T2 sequence (P16473 21-764): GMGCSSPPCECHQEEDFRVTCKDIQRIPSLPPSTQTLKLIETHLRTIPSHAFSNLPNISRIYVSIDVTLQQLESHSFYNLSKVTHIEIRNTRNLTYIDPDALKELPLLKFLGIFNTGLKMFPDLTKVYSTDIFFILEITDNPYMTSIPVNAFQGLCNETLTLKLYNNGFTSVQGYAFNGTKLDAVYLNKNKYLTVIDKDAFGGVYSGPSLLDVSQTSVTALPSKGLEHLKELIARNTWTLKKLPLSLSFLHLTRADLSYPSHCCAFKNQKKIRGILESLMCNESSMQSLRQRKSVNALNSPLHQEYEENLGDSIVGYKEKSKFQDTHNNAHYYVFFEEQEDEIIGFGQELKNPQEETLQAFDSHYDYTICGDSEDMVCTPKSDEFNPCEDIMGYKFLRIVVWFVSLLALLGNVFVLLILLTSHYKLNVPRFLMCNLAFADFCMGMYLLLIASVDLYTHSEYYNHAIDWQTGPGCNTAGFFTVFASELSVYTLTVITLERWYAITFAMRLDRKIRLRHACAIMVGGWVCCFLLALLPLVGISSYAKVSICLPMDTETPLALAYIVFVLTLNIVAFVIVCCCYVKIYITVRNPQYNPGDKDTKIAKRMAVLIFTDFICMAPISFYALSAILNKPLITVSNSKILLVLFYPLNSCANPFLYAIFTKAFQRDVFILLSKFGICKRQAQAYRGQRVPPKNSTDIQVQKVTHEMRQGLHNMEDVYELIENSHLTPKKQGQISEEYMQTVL
Assay: Antagonist activity using TSH-induced cAMP generation in human TSHR-stably expressing CHO cells
Assay type: cell-based
Details: human TSH 50 ng/mL
Experimental: Measurement of antagonist activity using TSH-induced cAMP generation in human TSHR-stably expressing CHO cells as an indicator
The gene sequence (reference number: NM_000369.2) of a human TSHR was inserted into multiple cloning sites of pcDNA3.1 (+). Prepared plasmid vectors were introduced into CHO cells using a lipofection method, and human TSHR-stably expressing CHO cells were established. Obtained cells were seeded in a 96-well poly-D-lysine-coated plate at 5 × 10^4 cells/well and cultured in an F12 culture medium containing 10%FBS, 400 µg/mL of G418, 50 U/mL of penicillin, and 50 µg/mL of streptomycin under conditions of 37°C and 5% CO2 for one day. After the culture medium was removed, the cells were washed twice with 100 µL of an assay buffer solution (Hanks' Balanced Salt Solution containing 20 mM HEPES and 1 mM IBMX) per well. 30 µL of a test compound-containing assay buffer solution was added to the well and incubated at room temperature for 15 minutes. Next, 30 µL of an assay buffer solution containing human TSH (final concentration: 50 ng/mL, R&D Systems, Inc.) was added thereto and incubated at 37°C for one hour. A supernatant was removed, a Lysis and Detection Buffer 2(Cisbio) was added thereto, and the mixture was incubated at room temperature for one hour to prepare a cell lysate. According to the instruction manual of a cAMP Gs HiRange kit (Cisbio), the cell lysate, d2-labeled cAMP, and anti-cAMP Europium Cryptate labeled antibodies (Cisbio) were reacted together in a 384-well white microplate. Next, fluorescence intensity ratios (measurement wavelengths: 665 nm/620 nm) were measured using a multi-plate reader (PHERAstar FSX, BMG LABTECH, Japan). The fluorescence intensity ratio of each sample was converted to a cAMP content using a standard curve. The cAMP content was converted as a percentage of the control value to calculate a cAMP generation rate. The cAMP generation rates were plotted against the test compound concentrations using Prism (Graph Pad Software Inc.) to calculate IC50 values. The IC50's of the individual test compounds are shown in the above tables. In the tables, IC50 < 0.3 µM was denoted as A, and 0.3 µM ≤ IC50 < 30 µM was denoted as B. Cases where the IC50 values were not calculated for test compounds from which activity was recognized are denoted as C.

Row | Compound | IC50 [nM]
3 | CC(C)(C)OC(=O)Nc1ccc(-c2cccnc2CCC(N)=O)c(Cc2ncccc2F)c1F [Example F-2, tert-Butyl (4-(2-(3-amino-3-oxopropyl)pyridin-3-yl)-2-fluoro-3-((3-fluoropyridin-2-yl)methyl)phenyl)carbamate] | 300 to 30000
4 | C[C@@H](OC(=O)Nc1ccc(-c2cccnc2CCC(N)=O)c(Cc2ncccc2F)c1F)C1CC1 [Example F-3, (R)-1-Cyclopropylethyl (4-(2-(3-amino-3-oxopropyl)pyridin-3-yl)-2-fluoro-3-((3-fluoropyridin-2-yl)methyl)phenyl)carbamate] | < 300
5 | CC(C)(C)OC(=O)Nc1ccc(-c2cccnc2CNC(N)=O)c(CN2CCOCC2)c1F [Example F-4, tert-Butyl (2-fluoro-3-(morpholinomethyl)-4-(2-(ureidomethyl)pyridin-3-yl)phenyl)carbamate] | 300 to 30000
6 | C[C@H]1CN(Cc2c(-c3cccnc3CNC(N)=O)ccc(NC(=O)OC(C)(C)C)c2F)CCO1 [Example F-5, tert-Butyl (S)-(2-fluoro-3-((2-methylmorpholino)methyl)-4-(2-(ureidomethyl)pyridin-3-yl)phenyl)carbamate] | > 30000
7 | CC(C)(C)OC(=O)Nc1ccc(-c2cccnc2CNC(N)=O)c(CN2CCCC(F)(F)C2)c1F [Example F-6, tert-Butyl (3-((3,3-difluoropiperidin-1-yl)methyl)-2-fluoro-4-(2-(ureidomethyl)pyridin-3-yl)phenyl)carbamate] | 300 to 30000
8 | CC(C)(C)OC(=O)Nc1ccc(-c2cccnc2CNC(N)=O)c(CN2CC3CCC(C2)O3)c1F [Example F-7, tert-Butyl (3-((8-oxa-3-azabicyclo[3.2.1]octan-3-yl)methyl)-2-fluoro-4-(2-(ureidomethyl)pyridin-3-yl)phenyl)carbamate] | 300 to 30000
9 | CC(C)(C)OC(=O)Nc1ccc(-c2cccnc2CNC(N)=O)c(C(=O)N2CCOCC2)c1F [Example F-8, tert-Butyl (2-fluoro-3-(morpholine-4-carbonyl)-4-(2-(ureidomethyl)pyridin-3-yl)phenyl)carbamate] | > 30000
10 | CC(C)(C)OC(=O)Nc1ccc(-c2cccnc2CNC(N)=O)c(CC2CC2)c1F [Example F-9, tert-Butyl (3-(cyclopropylmethyl)-2-fluoro-4-(2-(ureidomethyl)pyridin-3-yl)phenyl)carbamate] | 300 to 30000
11 | CC(C)C(=O)Nc1ccc(-c2cccnc2CNC(N)=O)c(Cc2ccccc2F)c1F [Example G-2, N-(2-Fluoro-3-(2-fluorobenzyl)-4-(2-(ureidomethyl)pyridin-3-yl)phenyl)isobutylamide] | 300 to 30000

Continued, values first:

Row | IC50 [nM] | Compound
12 | 300 to 30000 | CC1(C(=O)Nc2ccc(-c3cccnc3CNC(N)=O)c(Cc3ccccc3F)c2F)CC1 [Example G-1, N-(2-Fluoro-3-(2-fluorobenzyl)-4-(2-(ureidomethyl)pyridin-3-yl)phenyl)-1-methylcyclopropane-1-carboxamide]
13 | 300 to 30000 | NC(=O)NCc1ncccc1-c1ccc(NC(=O)C2CC2)c(F)c1Cc1ccccc1F [Example G-3, N-(2-Fluoro-3-(2-fluorobenzyl)-4-(2-(ureidomethyl)pyridin-3-yl)phenyl)cyclopropanecarboxamide]
14 | < 300 | NC(=O)NCc1ncccc1-c1ccc(NC(=O)C2CC(F)(F)C2)c(F)c1Cc1ccccc1F [Example G-4, 3,3-Difluoro-N-(2-fluoro-3-(2-fluorobenzyl)-4-(2-(ureidomethyl)pyridin-3-yl)phenyl)cyclobutane-1-carboxamide]
15 | 300 to 30000 | NC(=O)NCc1ncccc1-c1ccc(NC(=O)C2CCCO2)c(F)c1Cc1ccccc1F (centres unmarked) [Example G-5]
16 | 300 to 30000 | NC(=O)NCc1ncccc1-c1ccc(NC(=O)N2CCCC2)c(F)c1Cc1ccccc1F [Example G-6]
17 | < 300 | NC(=O)NCc1ncccc1-c1ccc(NC(=O)N2CC3(CCC3)C2)c(F)c1Cc1ccccc1F [Example G-7, N-(2-Fluoro-3-(2-fluorobenzyl)-4-(2-(ureidomethyl)pyridin-3-yl)phenyl)-2-azaspiro[3.3]heptane-2-carboxamide]
18 | < 300 | NC(=O)NCc1ncccc1-c1ccc(NC(=O)NC2CCCC2)c(F)c1Cc1ccccc1F [Example G-8, 1-Cyclopentyl-3-(2-fluoro-3-(2-fluorobenzyl)-4-(2-(ureidomethyl)pyridin-3-yl)phenyl)urea]
19 | 300 to 30000 | CON(C(=O)Nc1ccc(-c2cccnc2CNC(N)=O)c(Cc2ccccc2F)c1F)C1CCCC1 [Example G-9, 1-Cyclopentyl-3-(2-fluoro-3-(2-fluorobenzyl)-4-(2-(ureidomethyl)pyridin-3-yl)phenyl)-1-methoxyurea]
20 | 300 to 30000 | CC(C)(C)OC(=O)Nc1ccc(-c2nccnc2CCC(N)=O)c(Cc2ccccc2)c1F [Example H-1, tert-Butyl (4-(3-(3-amino-3-oxopropyl)pyrazin-2-yl)-3-benzyl-2-fluorophenyl)carbamate]
